Assay results from PubChem BioAssay AID248 (DTP/NCI, 2004).
Several values for one entry are separate records, joined by “and”; a condition that tells them apart may be missing. Identical values can stand only once. Inconclusive results and toxic doses are left out. Rule as the data show it: active = T/C of 150% or more; inactive = T/C below 125%.

Tested on: L1210 leukemia ip in BDF1 mice, survival T/C
Assay: NCI In Vivo Anticancer Drug Screen. Data for tumor model L1210 Leukemia (intraperitoneal) in B6D2F1 (BDF1) mice
Conditions: endpoint: mean survival time, higher = longer survival
Procedure, shortened: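 Antitumor effect is assessed in tumor-bearing animals. Survival in the compound arm is compared with a vehicle-dosed control arm and expressed as their quotient.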

[1] = dose: 50.0 mg/kg/injection, schedule: Q01DX001 (ip), vehicle: carboxymethylcellulose (CMC)
[2] = dose: 100.0 mg/kg/injection, schedule: Q01DX001 (ip), vehicle: carboxymethylcellulose (CMC)
[3] = dose: 200.0 mg/kg/injection, schedule: Q01DX001 (ip), vehicle: carboxymethylcellulose (CMC)
[4] = dose: 400.0 mg/kg/injection, schedule: Q01DX001 (ip), vehicle: carboxymethylcellulose (CMC)
[5] = dose: 50.0 mg/kg/injection, schedule: Q01DX009 (ip), vehicle: Klucel (hydroxypropylcellulose) (HPC)
[6] = dose: 50.0 mg/kg/injection, schedule: Q04DX003 (ip), vehicle: Klucel (hydroxypropylcellulose) (HPC)
[7] = dose: 100.0 mg/kg/injection, schedule: Q01DX009 (ip), vehicle: Klucel (hydroxypropylcellulose) (HPC)
[8] = dose: 100.0 mg/kg/injection, schedule: Q04DX003 (ip), vehicle: Klucel (hydroxypropylcellulose) (HPC)
[9] = dose: 200.0 mg/kg/injection, schedule: Q01DX009 (ip), vehicle: Klucel (hydroxypropylcellulose) (HPC)
[10] = dose: 200.0 mg/kg/injection, schedule: Q04DX003 (ip), vehicle: Klucel (hydroxypropylcellulose) (HPC)
[11] = dose: 50.0 mg/kg/injection, schedule: Q01DX001 (ip), vehicle: saline
[12] = dose: 100.0 mg/kg/injection, schedule: Q01DX001 (ip), vehicle: saline
[13] = dose: 200.0 mg/kg/injection, schedule: Q01DX001 (ip), vehicle: saline
[14] = dose: 400.0 mg/kg/injection, schedule: Q01DX001 (ip), vehicle: saline
[15] = dose: 100.0 mg/kg/injection, schedule: Q04DX003 (ip), vehicle: saline
[16] = dose: 200.0 mg/kg/injection, schedule: Q04DX003 (ip), vehicle: saline
[17] = dose: 400.0 mg/kg/injection, schedule: Q04DX003 (ip), vehicle: saline
[18] = dose: 100.0 mg/kg/injection, schedule: Q01DX001 (ip), vehicle: saline with Tween-80
[19] = dose: 200.0 mg/kg/injection, schedule: Q01DX001 (ip), vehicle: saline with Tween-80
[20] = dose: 400.0 mg/kg/injection, schedule: Q01DX001 (ip), vehicle: saline with Tween-80
[21] = dose: 400.0 mg/kg/injection, schedule: Q01DX009 (ip), vehicle: Klucel (hydroxypropylcellulose) (HPC)
[22] = dose: 400.0 mg/kg/injection, schedule: Q04DX003 (ip), vehicle: Klucel (hydroxypropylcellulose) (HPC)
[23] = dose: 100.0 mg/kg/injection, schedule: Q01DX001 (ip), vehicle: Klucel (hydroxypropylcellulose) (HPC)
[24] = dose: 200.0 mg/kg/injection, schedule: Q01DX001 (ip), vehicle: Klucel (hydroxypropylcellulose) (HPC)
[25] = dose: 400.0 mg/kg/injection, schedule: Q01DX001 (ip), vehicle: Klucel (hydroxypropylcellulose) (HPC)
[26] = dose: 100.0 mg/kg/injection, schedule: Q04DX003 (ip), vehicle: saline with Tween-80
[27] = dose: 200.0 mg/kg/injection, schedule: Q04DX003 (ip), vehicle: saline with Tween-80
[28] = dose: 400.0 mg/kg/injection, schedule: Q04DX003 (ip), vehicle: saline with Tween-80

Measured: T/C

O=[N+]([O-])c1ccc(Nc2ccccc2)nc1
inactive: [1] 106 % of control | [2] 106 % of control | [3] 101 % of control | [4] 106 % of control

COc1cc(/C=C\[N+](=O)[O-])ccc1OCc1ccccc1
inactive: [5] 94 % of control | [6] 98 % of control | [7] 103 % of control | [8] 104 % of control | [9] 95 % of control | [10] 91 % of control

CN(C)CCCN1CCCCC1
inactive: [11] 106 % of control | [12] 115 % of control | [13] 110 % of control | [14] 104 % of control

CC[n+]1c(C)sc2cc(Cl)c(-c3ccccc3)cc21
inactive: [15] 98 % of control | [16] 101 % of control | [17] 95 % of control

Cc1cc(N(CCCl)CCCl)ccc1C=Nc1cccc2ncccc12
inactive: dose: 100.0 mg/kg/injection, schedule: Q01DX001 (ip), vehicle: other 95 % of control | dose: 200.0 mg/kg/injection, schedule: Q01DX001 (ip), vehicle: other 97 % of control | dose: 400.0 mg/kg/injection, schedule: Q01DX001 (ip), vehicle: other 93 % of control

COC(=O)[C@H]1[C@H]2C[C@@H]3c4[nH]c5ccccc5c4CCN3C[C@H]2C[C@@H](OC(=O)c2cc(OC)c(OC)c(OC)c2)[C@@H]1OC
inactive: dose: 0.23 mg/kg/injection, schedule: Q01DX009 (ip), vehicle: Klucel (hydroxypropylcellulose) (HPC) 93 % of control | dose: 0.23 mg/kg/injection, schedule: Q04DX003 (ip), vehicle: saline 95 % of control | dose: 0.46 mg/kg/injection, schedule: Q01DX009 (ip), vehicle: Klucel (hydroxypropylcellulose) (HPC) 90 % of control | dose: 0.46 mg/kg/injection, schedule: Q04DX003 (ip), vehicle: saline 104 % of control | dose: 0.93 mg/kg/injection, schedule: Q01DX009 (ip), vehicle: Klucel (hydroxypropylcellulose) (HPC) 101 % of control | dose: 0.93 mg/kg/injection, schedule: Q04DX003 (ip), vehicle: saline 112 % of control | dose: 1.87 mg/kg/injection, schedule: Q01DX009 (ip), vehicle: Klucel (hydroxypropylcellulose) (HPC) 88 % of control | dose: 1.87 mg/kg/injection, schedule: Q04DX003 (ip), vehicle: saline 98 % of control | dose: 3.75 mg/kg/injection, schedule: Q04DX003 (ip), vehicle: saline 101 % of control

O=S(=O)([O-])O.O=S(O)S(=O)O.[Co+3].[NH2-].[NH2-].[NH2-].[NH2-].[NH2-]
inactive: dose: 25.0 mg/kg/injection, schedule: Q04DX002 (ip), vehicle: saline 91 % of control | dose: 50.0 mg/kg/injection, schedule: Q04DX002 (ip), vehicle: saline 97 % of control

Cc1csc(=S)n1-c1ccc(Cl)cc1
inactive: [18] 107 % of control | [19] 100 % of control | [20] 98 % of control

O=[N+]([O-])c1ccc2cn[nH]c2c1
inactive: [7] 112 % of control | [8] 95 % of control | [9] 106 % of control | [10] 92 % of control | [21] 107 % of control | [22] 96 % of control

O=C(Nc1ccc(Cl)c(Cl)c1)C(Cl)Cl
inactive: dose: 100.0 mg/kg/injection, schedule: Q04DX002 (ip), vehicle: Klucel (hydroxypropylcellulose) (HPC) 109 % of control | dose: 400.0 mg/kg/injection, schedule: Q04DX002 (ip), vehicle: Klucel (hydroxypropylcellulose) (HPC) 103 % of control

Cc1nc(N)[nH]c(=O)c1CCCNCc1ccccc1
inactive: [23] 96 % of control | [24] 94 % of control | [25] 94 % of control

NC(N)=N/N=C/C(O)CO (stereo unspecified)
inactive: dose: 15.0 mg/kg/injection, schedule: Q01DX Z (ip), vehicle: methylcellulose (MC) 104 % of control | dose: 30.0 mg/kg/injection, schedule: Q01DX Z (ip), vehicle: methylcellulose (MC) 113 % of control | dose: 60.0 mg/kg/injection, schedule: Q01DX Z (oral), vehicle: methylcellulose (MC) 117 % of control | dose: 240.0 mg/kg/injection, schedule: Q01DX Z (oral), vehicle: methylcellulose (MC) 93 % of control

O=C(C(=S)N1CCOCC1)c1ccccc1
inactive: [8] 101 % of control | [10] 104 % of control | [22] 101 % of control

CCOC(=O)c1c(Cl)cc(C)nc1C
inactive: [26] 93 % of control | [27] 101 % of control | [28] 95 % of control

CCCCCCCC/C=N/Nc1nnc(N/N=C/CCCCCCCC)c2ccccc12
inactive: [1] 108 % of control | [2] 114 % of control | dose: 177.0 mg/kg/injection, schedule: Q01DX001 (ip), vehicle: carboxymethylcellulose (CMC) 93 % of control and 111 % of control | [3] 114 % of control | dose: 266.0 mg/kg/injection, schedule: Q01DX001 (ip), vehicle: carboxymethylcellulose (CMC) 119 % of control | [4] 102 % of control | dose: 600.0 mg/kg/injection, schedule: Q01DX001 (ip), vehicle: carboxymethylcellulose (CMC) 101 % of control

CN(C)N=Nc1ccc(C(F)(F)F)cc1
inactive: dose: 50.0 mg/kg/injection, schedule: Q01DX001 (ip), vehicle: saline with Tween-80 97 % of control | dose: 50.0 mg/kg/injection, schedule: Q01DX009 (ip), vehicle: saline with Tween-80 94 % of control | dose: 50.0 mg/kg/injection, schedule: Q04DX003 (ip), vehicle: saline with Tween-80 98 % of control | [18] 103 % of control | dose: 100.0 mg/kg/injection, schedule: Q01DX009 (ip), vehicle: saline with Tween-80 94 % of control | [26] 98 % of control | [19] 105 % of control | dose: 200.0 mg/kg/injection, schedule: Q01DX009 (ip), vehicle: saline with Tween-80 97 % of control | [27] 101 % of control | [20] 101 % of control | dose: 400.0 mg/kg/injection, schedule: Q01DX009 (ip), vehicle: saline with Tween-80 98 % of control | [28] 98 % of control

O=C(O)CCCCCNC(=O)c1ccccc1
inactive: [7] 92 % of control | [15] 114 % of control | [9] 93 % of control | [16] 100 % of control | [21] 102 % of control | [17] 103 % of control

CCC(C)c1ccccc1OC(=O)Nc1ccc(OC)cc1 (stereo unspecified)
inactive: [5] 105 % of control | [7] 92 % of control | [8] 96 % of control | [9] 95 % of control | [10] 94 % of control | [22] 100 % of control

NC(=O)NC(=O)COc1ccc(Cl)cc1Cl
inactive: dose: 100.0 mg/kg/injection, schedule: Q04DX002 (ip), vehicle: saline + alcohol 96 % of control | dose: 200.0 mg/kg/injection, schedule: Q04DX002 (ip), vehicle: saline + alcohol 103 % of control

CCN(CC)CCSC(=O)C(O)(c1ccccc1)c1ccccc1
inactive: dose: 75.0 mg/kg/injection, schedule: Q01DX001 (ip), vehicle: saline 100 % of control

Cc1cccc(C)c1/[N+]([O-])=C/c1ccc(Cl)cc1
inactive: [23] 101 % of control | [24] 98 % of control | [25] 108 % of control

N#CC(C#N)=Cc1cccnc1
inactive: dose: 12.5 mg/kg/injection, schedule: Q04DX003 (ip), vehicle: Klucel (hydroxypropylcellulose) (HPC) 98 % of control | dose: 25.0 mg/kg/injection, schedule: Q04DX003 (ip), vehicle: Klucel (hydroxypropylcellulose) (HPC) 100 % of control | [1] 101 % of control | [6] 93 % of control and 104 % of control | [2] 98 % of control

O=Nc1nc2ncccn2c1-c1ccccc1
inactive: [11] 97 % of control | [12] 101 % of control | [13] 103 % of control | [14] 109 % of control
